In patent publication US8828469B2, “Use of alkamides for masking an unpleasant flavor” (Symrise AG, priority 2007, dated 2014):

Test: Tests carried out by the Applicant on masking or reducing unpleasant flavor impressions
Conditions: for effect for masking or reducing the unpleasant flavor impression of an unpleasant-tasting substance: among the alkamides tested by the Applicant

Row | SMILES | effect for masking or reducing the unpleasant flavor impression of an unpleasant-tasting substance | effect to change, mask or reduce the unpleasant flavor impression (very low concentrations which are not sufficient to intensify salivation)
1 | CCCCC/C=C/C=C/C(=O)NCC(C)C [Formula (1), 2E,4E-decadienoic acid-N-isobutylamide] | best effect | very strong effect
2 | CCCCC/C=C\C=C\C(=O)NCC(C)C [Formula (2), 2E,4Z-decadienoic acid-N-isobutylamide] | best effect | 
3 | CCCCC/C=C/C=C\C(=O)NCC(C)C [Formula (4), 2Z,4E-decadienoic acid-N-isobutylamide] | best effect | 
4 | CCCCC/C=C\C=C/C(=O)NCC(C)C [Formula (3), 2Z,4Z-decadienoic acid-N-isobutylamide] | best effect | 
